Measured values: patent US20090264371A1, “ANTIPROLIFERATIVE PEPTIDES AND ANTIBODIES FOR THEIR DETECTION” (BIOINCEPT LLC, priority 2004, published 2009)

Tests used:
[1] = test system: renal cancer cells (surgical specimen); assay: Proliferation of cells from a surgical renal cancer specimen; format: cell-based; conditions: about 24-30 hrs; chemotherapies at high concentrations of approximately 10-100 fold
Experimental: Cells were incubated with purified developmental peptides for approximately 24-30 hrs. While developmental peptides were effective in inhibiting proliferation of the renal cancer cells, two standardly used chemotherapies (a 5-FU regimen and a vinblastine regimen) remained ineffective, even at a high concentrations of approximately 10-100 fold.

[2] = test system: renal carcinoma cells (RCC); assay: Viability of short-term cultured renal carcinoma cells (P1 and JC-1 staining); format: cell-based
Experimental: Mitochondrial membrane potential. A stock solution of JC-1 dye (100 μg/ml in DMSO) is prepared. Cells are preincubated with the peptide of SEQ ID NO: 2 for up to 24 hours. JC-1 reagent is diluted just prior to use. For each assay, 100 μl of stock solution is diluted to 1 ml using pre-warmed cell culture medium and the solution is vortexed. 40 μl of diluted JC-1 is added to each well and incubated at 37° C. in 5% CO2 incubator for 25-30 min. Medium is replaced with pre-warmed PBS. Samples are detected by fluorescent signals by using flow cytometry results compared to buffer only treated controls. JC-1 reagent accumulates in the intact mitochondria, giving off a bright red fluorescence. In apoptotic cells, JC-1 reagent cannot accumulate in the mitochondria due to the altered mitochondrial membrane potential.
FIG. 2 further confirms developmental peptides effectiveness as compared to chemotherapy. Short-term cultured renal carcinoma cells (RCC) were incubated with developmental peptides. […] While not wishing to be bound to theory, the anti-proliferative effect of developmental peptides is thought to be due to the developmental peptides induction of mitochondrial alterations in the malignant cells, as analyzed using JC-1 staining, a process which invariably leads to cell death. […] Thus, low concentrations of developmental peptides may enhance the efficacy of a chemotherapy regimen.

[3] = test system: human mammary epithelial cells (HMEC); assay: 3H thymidine labeling of DNA in normal HMEC cells; format: cell-based; conditions: about 1.5-12 mg/ml, low concentrations
Experimental: 3H Thymidine assay. In particular the tritiated thymidine assays were performed as follows. 10,000 cells were plated in 1 ml of RPMI 1640 medium containing 10% fetal bovine serum in 24-well plates. The cultures were incubated for 24 hours at 37 C, 5% carbon dioxide. The peptide was added to each corresponding well at different doses and allowed to incubate for 72 hours. The cells were then exposed to tritiated thymidine at a concentration of 1 uCi/ml (ICN, cat #2403905) and incubated at 37 C for 4 hours. The cells were washed twice with cold PBS to remove non-incorporated thymidine. The cells were treated twice with 10% trichloracetic acid (Fisher, lot #94276913), 1 ml per well. The cells were then disrupted by treatment with 10% sodium lauryl sulfate (Sigma, Cat#L-3771) at 500 ul/well. Cell from each well were transferred to a scintillation vial and counted in a Beckman Counter Model LS-133 scintillation counter.
A breast cancer cell line (MCF-7) and human mammary epithelial cells (HMEC) were incubated with the 9 AA developmental peptides of SEQ ID NO: 2. 3H thymidine labeling of DNA was used to analyze the anti-proliferative effect of developmental peptides using concentrations in the range of about 1.5-12 mg/ml developmental peptides. […] The antiproliferative response was repeated and analyzed using the XTT method. […]

rat embryo cultures = assay: Rat embryo culture teratogenicity (roller bottle system); conditions: 48 hours, about 500 μg/ml
Experimental: Rat embryo cultures were exposed to synthetic developmental peptides of about 9 AA (about 500 μg/ml) for 48 hours (FIG. 6).

[4] = test system: PC3 cell line (androgen receptor negative prostate cancer cells); format: cell-based; conditions: about 12-25 mg/ml, 24 hours
[5] = test system: MCF-7 breast cancer cells; assay: 3H thymidine incorporation assay on MCF-7 cells; format: cell-based; conditions: about 1.5-12 mg/ml, low concentrations
Experimental: Isolation of the 9AA peptide from the adult mammalian liver. Fresh adult rabbit liver tissues were collected and homogenized on ice with H20. The samples were centrifuged at 15,000 g and the sample was filtered using Amicon filters 3000-10000 Da, <3000-500, and <500. Fractions collected were tested for activity using the MCF-7 cells. […] Separation by reverse phase HPLC yielded a 90% inhibition of cancer cells.
In a similar manner adult frozen porcine liver was collected and homogenized with H2O at 4° C. The suspension was centrifuged at 15,000 g and the pellet discarded. The suspension was filtered and the fraction <3000 Da was collected and run using reversed phase HPLC C18 column with a 0-95% acetonitrile gradient. […] Antiproliferative activity was tested by collecting the fractions, drying and suspending the sample in media and adding to MCF7 cells for 48 hours. Incorporation of 3H thymidine into cellular DNA of MCF-7 breast cancer cells was used to determine the anti-proliferative activity.
3H Thymidine assay. […] Cell from each well were transferred to a scintillation vial and counted in a Beckman Counter Model LS-133 scintillation counter.
A breast cancer cell line (MCF-7) and human mammary epithelial cells (HMEC) were incubated with the 9 AA developmental peptides of SEQ ID NO: 2. […] The antiproliferative response was repeated and analyzed using the XTT method. […]

HMEC cells = assay: XTT method on HMEC cells; format: cell-based, human; conditions: about 1.5 mg/ml
Experimental: (§1) XTT method. A commercial (Roche, N.J.) kit was used. At the end of the experiment the XTT labeling mixture was coupled to the electron reagent coupling and was added to the cultured cells in microplate for 4 hours. The microplate was placed in an ELISA microplate reader (Molecular devices, Menlo Park, Calif.).
(§2) A breast cancer cell line (MCF-7) and human mammary epithelial cells (HMEC) were incubated with the 9 AA developmental peptides of SEQ ID NO: 2. 3H thymidine labeling of DNA was used to analyze the anti-proliferative effect of developmental peptides using concentrations in the range of about 1.5-12 mg/ml developmental peptides. […] The antiproliferative response was repeated and analyzed using the XTT method. […] Finally, this same analysis was repeated using resistant prostate cancer cells, the PC3 cell line, which are androgen receptor negative cells. Developmental peptides was added to the cells using concentrations of about 6-25 mg/ml for 24 hours in the presence of 3H thymidine to measure the effect of developmental peptides on cell proliferation.

MCF-7 cells = assay: XTT method on MCF-7 cells; format: cell-based; conditions: about 1.5 mg/ml
Experimental: as §1, §2

For O=c1[nH]cc(F)c(=O)[nH]1 [5-FU], the “inhibition of renal cancer cell proliferation” value [1] was “ineffective”.
For COc1cc([C@@H]2c3cc4c(cc3[C@@H](O[C@@H]3O[C@@H]5CO[C@@H](C)O[C@H]5[C@H](O)[C@H]3O)[C@H]3COC(=O)[C@H]23)OCO4)cc(OC)c1O [etoposide], the “cell viability / cell death in RCC, P1 staining” value (from here on “cell viability / cell death”) [2] was “failed to induce cell death”.
For CN(Cc1cnc2nc(N)nc(N)c2n1)c1ccc(C(=O)N[C@@H](CCC(=O)O)C(=O)O)cc1 [methotrexate], the “cell viability / cell death” value [2] was “failed to induce cell death”.
For CC(=O)O[C@H]1C(=O)[C@@]2(C)[C@H]([C@H](OC(=O)c3ccccc3)[C@]3(O)C[C@H](OC(=O)[C@H](O)[C@@H](NC(=O)c4ccccc4)c4ccccc4)C(C)=C1C3(C)C)[C@]1(OC(C)=O)CO[C@@H]1C[C@@H]2O [paclitaxel], the “cell viability / cell death” value [2] was “failed to induce cell death”.
For CC[C@]1(O)C[C@@H]2CN(CCc3c([nH]c4ccccc34)[C@@](C(=O)OC)(c3cc4c(cc3OC)N(C)[C@H]3[C@@](O)(C(=O)OC)[C@H](OC(C)=O)[C@]5(CC)C=CCN6CC[C@]43[C@@H]65)C2)C1 [vinblastine], the “inhibition of renal cancer cell proliferation” value [1] was “ineffective”.
With “H-VLGKRIKGT-OH [9 AA developmental peptides, N-Val-Leu-Gly-Lys-Arg-Ile-Lys-Gly-Thr-OH]” the “effect on normal HMEC cells, 3H thymidine” value [3] was “absence of any harmful or negative effect”, the “development of viscera yolk sac and embryo” value (rat embryo cultures) was “developed normally” and the teratogenicity (rat embryo cultures) was “not teratogenic”. The “inhibition of PC3 proliferation, 3H thymidine” value [4] was “approximately 98%”, the “antiproliferative response, 3H thymidine” value [5] was “antiproliferative response was maintained” and the “effect on HMEC cells, XTT” value (HMEC cells) was “minimal effect”. For the same molecule, the “antiproliferative effect, XTT” value (MCF-7 cells) was “maintained the antiproliferative effect”.
